Results reported in paper PMC4278837, “A Cyclic Peptidic Serine Protease Inhibitor: Increasing Affinity by Increasing Peptide Flexibility” (PLoS ONE, 2014).
Read-outs that look alike come from different tables or passages of the source. Bridge positions count the residues as written; N and C are the ends. Peptide text beside a SMILES is read from it.

Biological target: T1, huPA-H99Y (Homo sapiens, UniProt P00749, H272Y)
T1 construct: To ensure that the uPAs purified from the conditioned media were completely in the two-chain form, they were treated with plasmin; hexa-His (C); made in house; host or cells: HEK293 6E suspension cells
Assay: Ki for inhibition of huPA-H99Y, chromogenic substrate S-2444
Type: biochemical
From the text: Determination of Ki values
The initial reaction velocities were monitored at an absorbance of 405 nm. The inhibition constants (K i) were subsequently determined from the non-linear regression analyses of plots for V i/V o versus [I]0, using Equation 2, derived under assumption of competitive inhibition:
[drawing 2] (2) where V i and V 0 are the reaction velocities in the presence and absence of inhibitor, respectively; [S]0 and [I]0 are the substrate and inhibitor concentrations, respectively; K M is K M for substrate hydrolysis by each protease. In Equation 2, it is assumed that [S]free ≈ [S]0 and [I]free ≈ [I]0.

[1] = 37°C, means ± S.D., read-out: K i for inhibition of huPA-H99Y

| Ki [1] [mM] | Compound | Ki [mM] |
| --- | --- | --- |
| > 1 | CC(=O)N[C@H]1CSSC[C@@H](C(N)=O)NC(=O)[C@H](CC(=O)O)NC(=O)[C@H](CC(C)C)NC(=O)[C@H](Cc2ccc(O)cc2)NC(=O)[C@H](CCCNC(=N)N)NC(=O)[C@H](CO)NC(=O)[C@H](Cc2ccc(O)cc2)NC(=O)[C@H](C)NC(=O)[C@H](C)NC1=O [Mupain-1 P2A, CAAYSRYLDC] (Ac-CAAYSRYLDC-NH2; disulfide 1-10) | – |
| > 1 | CC(=O)N[C@H]1CSSC[C@@H](C(N)=O)NC(=O)[C@H](CC(=O)O)NC(=O)[C@H](CC(C)C)NC(=O)[C@H](Cc2ccc(O)cc2)NC(=O)[C@H](CCCNC(=N)N)NC(=O)[C@H](CO)NC(=O)[C@H](C)NC(=O)[C@H](C)NC(=O)[C@@H]2CCCN2C1=O [Mupain-1 Y4A, CPAASRYLDC] (Ac-CPAASRYLDC-NH2; disulfide 1-10) | – |
| 0.044 ± 0.003 | CC(=O)N[C@H]1CSSC[C@@H](C(N)=O)NC(=O)[C@H](CC(=O)O)NC(=O)[C@H](CC(C)C)NC(=O)[C@H](C)NC(=O)[C@H](CCCNC(=N)N)NC(=O)[C@H](CO)NC(=O)[C@H](Cc2ccc(O)cc2)NC(=O)[C@H](C)NC(=O)[C@@H]2CCCN2C1=O [Mupain-1 Y7A, CPAYSRALDC] (Ac-CPAYSRALDC-NH2; disulfide 1-10) | – |
| – | CC(=O)N[C@H]1CSSC[C@@H](C(N)=O)NC(=O)[C@H](CC(=O)O)NC(=O)[C@H](CC(C)C)NC(=O)[C@H](Cc2ccc(O)cc2)NC(=O)[C@H](C)NC(=O)[C@H](CO)NC(=O)[C@H](Cc2ccc(O)cc2)NC(=O)[C@H](C)NC(=O)[C@@H]2CCCN2C1=O [Mupain-1 R6A, CPAYSAYLDC] (Ac-CPAYSAYLDC-NH2; disulfide 1-10) | > 1 |
